Measurements reported in US7829114B2, “Capsules containing aqueous fill compositions stabilized with derivatized cyclodextrin” (CyDex Pharmaceuticals, Inc., priority 2002, dated 2010).

Assay: H.S.I.T. on starch capsule
Assay type: physicochemical
Details: for content in fill composition for an HSIT rating of at least 3: SAE-CD, PVP and water fill, VEGAGEL hard shell capsule
Excerpt: FIG. 3 depicts a chart of the relationship between concentration of SBE cyclodextrin and H.S.I.T. (HALF-SHELL integrity test) rating for HGC (hard gelatin capsule From […]), HGS (hard gelatin capsule from SHIONOGI), HPC (hard hydroxypropyl methylcellulose shell from […]), and HPS (hard hydroxypropyl methylcellulose shell from SHIONOGI), and SSS (soft starch shell […]). The stability obtained was dependent upon the composition of the capsule gel.
FIGS. 10a-10i depict ternary graphs correlating the concentration of SAE-CD, water and PVP in a fill composition to the H.S.I.T. rating of a soft shell capsule exposed to the fill composition. Aqueous fill solutions comprising differing amounts of PVP, SAE-CD and water were prepared. The stability tests were conducted as described below. The capsules described herein were used: SHIONOGI HGC (hard gelatin capsule) (FIG. 10A), […] HPMC hard shell capsule (FIG. 10b), SHIONOGI HPMC hard shell capsule (FIG. 10C), […] HGC (FIG. 10D), VEGAGEL hard shell capsule (FIG. 10E), hydrophilic fill-grade CARDINAL SGC (soft gelatin capsule) (FIG. 10f), lipophilic fill-grade CARDINAL SGC (FIG. 10g), hydrophilic fill-grade BANNER SGC (FIG. 10h), and lipophilic fill-grade BANNER SGC (FIG. 10i). No other shell-stabilizing material(s) was (were) included in the fill compositions evaluated. The results varied according to the capsule used. Stabilized aqueous fill composition-containing capsule formulations can be achieved with each capsule if one or more of the following fill compositions detailed below are used. • 1. […]

Row | stability provided to capsules (SBE concentration of about ≧30% wt., soft starch capsules, FIG. 3) | Compound | content in fill composition for an HSIT rating of at least 3
1 | at least a one-week stability | sulfobutyl ether cyclodextrin [SAE-CD] | ≧6%
2 | – | O [Water] | ≦64%
